Experimental data from paper PMC9944867, “Mechanistic in vitro studies indicate that the clinical drug–drug interactions between protease inhibitors and rosuvastatin are driven by inhibition of intestinal BCRP and hepatic OATP1B1 with minimal contribution from OATP1B3, NTCP and OAT3” (Pharmacology Research & Perspectives, 2023).
“And” between values parts separate entries of the source, which are not always exact repeats. Identical values can stand only once.

What was measured:
human NTCP (SLC10A1) = biological target: T1, human NTCP (SLC10A1) (Homo sapiens, UniProt Q14973); assay: NTCP single concentration inhibition screen in HEK293 cells; format: cell-based; details: ≥10x [Iin max u]: atazanavir 50 μM, darunavir 15 μM, lopinavir 5 μM, ritonavir 0.3 μM; [3H]-taurocholic acid 1 μM
T1 construct: host or cells: HEK293 TransportoCells
T1 sequence (Q14973 1-349): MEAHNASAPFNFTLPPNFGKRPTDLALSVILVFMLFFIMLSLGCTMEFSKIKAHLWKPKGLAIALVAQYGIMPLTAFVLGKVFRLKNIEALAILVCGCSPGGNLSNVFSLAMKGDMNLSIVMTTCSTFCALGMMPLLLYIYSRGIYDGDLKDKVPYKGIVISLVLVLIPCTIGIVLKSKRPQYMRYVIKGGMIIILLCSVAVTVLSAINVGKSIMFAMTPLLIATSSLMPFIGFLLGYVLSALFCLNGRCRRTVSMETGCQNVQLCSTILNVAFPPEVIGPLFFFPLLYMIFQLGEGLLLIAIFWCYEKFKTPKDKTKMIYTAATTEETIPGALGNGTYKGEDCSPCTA

human OATP1B3 (SLCO1B3) [1] = biological target: T2, human OATP1B3 (SLCO1B3) (Homo sapiens, UniProt Q9NPD5); details: ≥10x [Iin max u]: atazanavir 50 μM, darunavir 15 μM, lopinavir 5 μM, ritonavir 0.3 μM; [3H]-estradiol 17β-D-glucuronide 0.02 μM
T2 sequence (Q9NPD5 1-702): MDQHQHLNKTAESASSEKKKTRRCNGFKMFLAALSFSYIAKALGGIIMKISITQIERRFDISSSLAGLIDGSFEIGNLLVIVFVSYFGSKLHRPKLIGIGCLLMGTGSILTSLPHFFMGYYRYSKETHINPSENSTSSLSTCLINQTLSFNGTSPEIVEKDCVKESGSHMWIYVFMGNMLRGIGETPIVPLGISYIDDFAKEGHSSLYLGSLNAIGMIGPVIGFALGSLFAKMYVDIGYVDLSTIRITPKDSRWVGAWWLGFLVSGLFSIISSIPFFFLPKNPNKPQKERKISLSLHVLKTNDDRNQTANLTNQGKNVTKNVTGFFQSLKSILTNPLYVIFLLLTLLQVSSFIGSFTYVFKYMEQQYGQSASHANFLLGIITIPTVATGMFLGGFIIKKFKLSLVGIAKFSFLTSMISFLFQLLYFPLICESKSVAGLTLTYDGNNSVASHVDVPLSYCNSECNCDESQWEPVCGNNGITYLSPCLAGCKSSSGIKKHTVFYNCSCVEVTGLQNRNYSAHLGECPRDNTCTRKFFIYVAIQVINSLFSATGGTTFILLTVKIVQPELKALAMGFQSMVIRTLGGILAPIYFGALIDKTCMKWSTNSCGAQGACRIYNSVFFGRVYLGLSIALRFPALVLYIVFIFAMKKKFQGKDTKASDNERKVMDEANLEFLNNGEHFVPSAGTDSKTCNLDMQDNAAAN

human OATP1B3 (SLCO1B3) [2] = biological target: T2, human OATP1B3 (SLCO1B3); assay: OATP1B3 inhibition in transporter-expressing HEK293 cells, [3H]-estradiol 17β-D-glucuronide uptake (IC50 determination); details: for IC50: OATP1B3-mediated transport of [3H]-estradiol 17β-D-glucuronide (0.02 μM), HEK293
Experimental: OATP1B1, OATP1B3, NTCP and vector control cell lines were cultured and subsequent transporter assays conducted as described above using the same transporter‐specific probe substrates and incubation times. For OATP1B1, the probe substrate was [^3H]‐estradiol 17β‐D‐glucuronide (0.02 μM) incubated for 2 min, with rifamycin SV (100 μM) as positive control inhibitor. For IC50 determinations, the only difference to the method performed above was that the 15‐min pre‐incubation step contained a range of six concentrations of protease inhibitor drug, and subsequent incubations were conducted with the same six concentration levels of drug rather than with a single concentration.

[3] = Pharmacokinetic parameters of protease inhibitors in clinical interaction studies with rosuvastatin; details: calculated, clinical dose of Table 5
human OAT3 (SLC22A8) = biological target: T3, human OAT3 (SLC22A8) (Homo sapiens, UniProt Q8TCC7); assay: OAT3 single concentration inhibition screen in HEK293 cells; format: cell-based; details: ≥10x unbound [Cmax]: atazanavir 15 μM, darunavir 10 μM, lopinavir 3 μM, ritonavir 0.1 μM; probe 1 μM
T3 construct: host or cells: HEK293 TransportoCells
T3 sequence (Q8TCC7 1-542): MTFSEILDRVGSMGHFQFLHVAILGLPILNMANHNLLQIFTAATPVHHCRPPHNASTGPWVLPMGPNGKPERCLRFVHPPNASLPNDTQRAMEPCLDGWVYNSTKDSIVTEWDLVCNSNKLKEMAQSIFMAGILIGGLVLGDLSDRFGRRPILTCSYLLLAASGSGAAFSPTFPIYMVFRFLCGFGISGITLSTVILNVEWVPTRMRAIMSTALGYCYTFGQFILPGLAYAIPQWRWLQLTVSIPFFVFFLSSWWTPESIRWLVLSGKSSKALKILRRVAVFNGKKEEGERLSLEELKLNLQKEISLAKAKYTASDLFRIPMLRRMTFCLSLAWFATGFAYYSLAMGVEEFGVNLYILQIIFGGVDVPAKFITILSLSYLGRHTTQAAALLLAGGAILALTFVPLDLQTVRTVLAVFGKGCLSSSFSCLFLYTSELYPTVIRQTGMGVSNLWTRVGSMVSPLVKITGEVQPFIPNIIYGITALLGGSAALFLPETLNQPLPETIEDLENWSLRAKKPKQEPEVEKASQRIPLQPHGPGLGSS

[4] = test system: intestinal BCRP and hepatic OATP1B1, OATP1B3, NTCP; details: rosuvastatin; ref Elsby et al.[13]; cited from earlier work
[5] = IC50, determined values from different occasions (OATP1B3), single occasion
[6] = IC50 mean (OATP1B3), mean (±SD) of three occasions

Compound	Inhibition of NTCP-mediated probe substrate transport, single concentration screen (human NTCP (SLC10A1))	Inhibition of OATP1B3-mediated probe substrate transport, single concentration screen (human OATP1B3 (SLCO1B3) [1])	IC50 (human OATP1B3 (SLCO1B3) [2]; [5])	IC50 (human OATP1B3 (SLCO1B3) [2]; [6]) [µM]	Mean OATP1B3 IC50 (Ki), fold lower than previously published (human OATP1B3 (SLCO1B3) [2]; against value with atorvastatin as probe substrate [33]) [fold]	[Ig] maximal enterocyte concentration ([3]; (FaFg × ka × dose)/Qent) [µM]	[Iin max u] unbound maximum hepatic inlet concentration [3] [µM]	[Iin max] maximum hepatic inlet concentration [3] [µM]	Inhibition of OAT3-mediated [3H]-estrone 3-sulfate transport, single concentration screen (human OAT3 (SLC22A8))	Predicted AUCR, inhibition of BCRP and OATP1B1 alone (earlier model) [4]
COC(=O)N[C@H](C(=O)N[C@@H](Cc1ccccc1)[C@@H](O)CN(Cc1ccc(-c2ccccn2)cc1)NC(=O)[C@@H](NC(=O)OC)C(C)(C)C)C(C)(C)C [atazanavir]	produced inhibition	produced inhibition	1.75 µM and 2.41 µM and 1.43 µM	1.86	3.9	142	4.90	35.0	neither atazanavir, darunavir, lopinavir nor ritonavir inhibited OAT3 transport	2.13
Cc1cccc(C)c1OCC(=O)N[C@@H](Cc1ccccc1)[C@@H](O)C[C@H](Cc1ccccc1)NC(=O)[C@H](C(C)C)N1CCCNC1=O [lopinavir]	produced inhibition	–	5.14 µM and 5.04 µM and 4.95 µM	5.04 ± 0.095	–	–	–	–	neither atazanavir, darunavir, lopinavir nor ritonavir inhibited OAT3 transport	–
